In patent US20260092057A1, “BCL-XL/BCL-2 DEGRADERS AND USES THEREOF” (Kymera Therapeutics, Inc., priority 2022, published 2026):
Where two headings read alike, the source gives them in different places.

Columns and labels:
MOLT-4 cells = assay: CTG (CellTiter-Glo) cell viability assay, MOLT-4; assay type: cell-based; details: MOLT-4, 3 day, read-out: CTG Cell Viability Assay - MOLT-4 3 day: Average external-IC50
Procedure: (§1) Compound-mediated viability effect on MOLT-4 and Caki-2 was quantitatively determined using the CellTiter-Glo® Luminescent Cell Viability Assay kit from Promega (Catalog number G7570) following manufacturer's recommended procedures. Briefly, MOLT-4 and Caki-2 cells were seeded into 384 well plates (Grenier Bio-One, Catalog number 781080) with a density of 10,000 cells per well. Compounds were then added to the assay plate with final top concentration of 10 µM and 1:3 dilution series with total of 9 doses. The final DMSO concentration is normalized to 0.2%. The assay plates were incubated at 37° C. for 3 days under 5% CO2. Then the assay plate was equilibrated at room temperature for 10 minutes. To determine cell viability, 30 uL CellTiter Glo reagent was added to each well and the assay plate was centrifuged at 1000 rpm for 30 second, incubated at room temperature for 10 min, and analyzed by detecting the luminescence using a multimode plate reader (EnVision 2105, PerkinElmer). The data was then analyzed by software Prism 7.0 from GraphPad and the dose response curves are fit using a three-parameter logistic equation to calculate IC50.
(§2) The letter codes for MOLT-4 IC50 include: A (<0.1 μM); B (0.1-1.0 μM); C (>1.0-3.0 μM); and D (>3.0 μM). The letter codes for Caki-2 IC50 include: A (<5 μM); B (5-10 μM); C (>10-30.0 μM); and D (>30.0 μM).

Caki-2 cells = assay: CTG (CellTiter-Glo) cell viability assay, Caki-2; assay type: cell-based; details: Caki-2, 3-day, read-out: CTG Chempartner/PHA- Caki-2 3-day: Average external-IC50
Procedure: as §1, §2

Row | SMILES | IC50 (MOLT-4 cells; Homo sapiens, MOLT-4, 72 h) | IC50 (Caki-2 cells; Homo sapiens, CAKI-2, 72 h) | IC50 (MOLT-4 cells) | IC50 (Caki-2 cells)
1 | Cc1ncsc1-c1ccc([C@H](C)NC(=O)[C@@H]2C[C@@H](O)CN2C(=O)[C@@H](NC(=O)CCCCCC(=O)NCCCNc2ccc(S(=O)(=O)NC(=O)c3ccc(N4CCC([C@@H](O)c5ccccc5-c5ccc(Cl)cc5)CC4)cc3Oc3cnc4[nH]ccc4c3)cc2S(=O)(=O)C(F)(F)F)C(C)(C)C)cc1 [I-55] | > 3 µM | > 30 µM | – | –
2 | Cc1ncsc1-c1ccc([C@H](C)NC(=O)[C@@H]2C[C@@H](O)CN2C(=O)[C@@H](NC(=O)CCCCCC(=O)N2CCN(CC[C@H](CSc3ccccc3)Nc3ccc(S(=O)(=O)NC(=O)c4ccc(N5CCC6(CC5)CC(N5CCC[C@H]5c5ccccc5C5CC5)C6)cc4)cc3S(=O)(=O)C(F)(F)F)CC2)C(C)(C)C)cc1 [I-88] | 1 to 3 µM | > 30 µM | – | –
3 | Cc1ncsc1-c1ccc([C@H](C)NC(=O)[C@@H]2C[C@@H](O)CN2C(=O)[C@@H](NC(=O)CCC(=O)N2CCN(CCCNc3ccc(S(=O)(=O)NC(=O)c4ccc(N5CCN(CC6=C(c7ccc(Cl)cc7)CC(C)(C)CC6)CC5)cc4Oc4cnc5[nH]ccc5c4)cc3S(=O)(=O)C(F)(F)F)CC2)C(C)(C)C)cc1 [I-79] | > 3 µM | > 30 µM | – | –
4 | Cc1ncsc1-c1ccc([C@H](C)NC(=O)[C@@H]2C[C@@H](O)CN2C(=O)[C@@H](NC(=O)CCCCCC(=O)N2CCN(CC[C@H](CSc3ccccc3)Nc3ccc(S(=O)(=O)NC(=O)c4ccc(NC5CC(C)C5)cc4)cc3S(=O)(=O)C(F)(F)F)CC2)C(C)(C)C)cc1 (stereo partly drawn) [I-44] | > 3 µM | > 30 µM | – | –
5 | Cc1ncsc1-c1ccc([C@H](C)NC(=O)[C@@H]2C[C@@H](O)CN2C(=O)[C@@H](NC(=O)CCCCCC(=O)NCCCNc2ccc(S(=O)(=O)NC(=O)c3ccc(N4CCN(Cc5ccccc5-c5ccc(Cl)cc5)CC4)cc3Oc3cnc4[nH]ccc4c3)cc2S(=O)(=O)C(F)(F)F)C(C)(C)C)cc1 [I-62] | > 3 µM | > 30 µM | – | –
6 | Cc1ncsc1-c1ccc([C@H](C)NC(=O)[C@@H]2C[C@@H](O)CN2C(=O)[C@@H](NC(=O)CCCCCC(=O)N(C)CC[C@H](CSc2ccccc2)Nc2ccc(S(=O)(=O)NC(=O)c3ccc(N4CCC([C@H](O)c5ccccc5-c5ccc(Cl)cc5)CC4)cc3)cc2S(=O)(=O)C(F)(F)F)C(C)(C)C)cc1 [I-73] | > 3 µM | > 30 µM | – | –
7 | Cc1ncsc1-c1ccc([C@H](C)NC(=O)[C@@H]2C[C@@H](O)CN2C(=O)[C@@H](NC(=O)CCCCCC(=O)N2CCN(Cc3ccc(-c4ccc(Cl)cc4)c([C@@H](O)C4CCN(c5ccc(C(=O)NS(=O)(=O)c6ccc(NCCCN(C)C)c(S(=O)(=O)C(F)(F)F)c6)c(Oc6cnc7[nH]ccc7c6)c5)CC4)c3)CC2)C(C)(C)C)cc1 [I-112] | > 3 µM | > 30 µM | – | –
8 | Cc1ncsc1-c1ccc([C@H](C)NC(=O)[C@@H]2C[C@@H](O)CN2C(=O)[C@@H](NC(=O)CCCCCC(=O)N2CCN(CCNc3ccc(S(=O)(=O)NC(=O)c4ccc(N5CCN(CC6=C(c7ccc(Cl)cc7)CC(C)(C)CC6)CC5)cc4Oc4cnc5[nH]ccc5c4)cc3S(=O)(=O)C(F)(F)F)CC2)C(C)(C)C)cc1 [I-97] | > 3 µM | > 30 µM | – | –
9 | Cc1ncsc1-c1ccc([C@H](C)NC(=O)[C@@H]2C[C@@H](O)CN2C(=O)[C@@H](NC(=O)CCC2CCN(CCCNc3ccc(S(=O)(=O)NC(=O)c4ccc(N5CCN([C@@H](O)c6ccccc6-c6ccc(Cl)cc6)CC5)cc4Oc4cnc5[nH]ccc5c4)cc3S(=O)(=O)C(F)(F)F)CC2)C(C)(C)C)cc1 [I-128] | > 3 µM | > 30 µM | – | –
10 | Cc1ncsc1-c1ccc([C@H](C)NC(=O)[C@@H]2C[C@@H](O)CN2C(=O)[C@@H](NC(=O)CCCCCC(=O)N2CCN(CC[C@H](CSc3ccccc3)Nc3ccc(S(=O)(=O)NC(=O)c4ccc(N5CC[C@@H](N(C)C)C5)cc4)cc3S(=O)(=O)C(F)(F)F)CC2)C(C)(C)C)cc1 [I-46] | > 3 µM | > 30 µM | – | –
11 | Cc1ncsc1-c1ccc([C@H](C)NC(=O)[C@@H]2C[C@@H](O)CN2C(=O)[C@@H](NC(=O)CCCCCC(=O)N2CCN(CCCNc3ccc(S(=O)(=O)NC(=O)c4ccc(N5CCC(C)(C)CC5)cc4Oc4cnc5[nH]ccc5c4)cc3S(=O)(=O)C(F)(F)F)CC2)C(C)(C)C)cc1 [I-54] | > 3 µM | > 30 µM | – | –
12 | Cc1ncsc1-c1ccc([C@H](C)NC(=O)[C@@H]2C[C@@H](O)CN2C(=O)[C@@H](NC(=O)CCCCCN(C)CCNc2ccc(S(=O)(=O)NC(=O)c3ccc(N4CCN(CC5=C(c6ccc(Cl)cc6)CC(C)(C)CC5)CC4)cc3Oc3cnc4[nH]ccc4c3)cc2S(=O)(=O)C(F)(F)F)C(C)(C)C)cc1 [I-77] | 0.1 to 1 µM | 10 to 30 µM | – | –
13 | Cc1ncsc1-c1ccc([C@H](C)NC(=O)[C@@H]2C[C@@H](O)CN2C(=O)[C@@H](NC(=O)CCCCCC(=O)N2CCN(C[C@]3(C)CCC(c4ccc(Cl)cc4)=C(CN4CCN(c5ccc(C(=O)NS(=O)(=O)c6ccc(NCCCN7CCOCC7)c(S(=O)(=O)C(F)(F)F)c6)c(Oc6cnc7[nH]ccc7c6)c5)CC4)C3)CC2)C(C)(C)C)cc1 [I-130] | – | > 30 µM | 1 to 3 µM | –
14 | COc1ccc(Oc2cc(N3CCN(CC4=C(c5ccc(Cl)cc5)CC(C)(C)CC4)CC3)ccc2C(=O)NS(=O)(=O)c2ccc(NCCCN3CCN(C(=O)CCCCCC(=O)N[C@H](C(=O)C4C[C@H](O)C[C@H]4C(=O)C[C@@H](C)c4ccc(-c5scnc5C)cc4)C(C)(C)C)CC3)c(S(=O)(=O)C(F)(F)F)c2)cc1 (stereo partly drawn) [I-136] | 0.1 to 1 µM | > 30 µM | – | –
15 | Cc1ncsc1-c1ccc([C@H](C)NC(=O)[C@@H]2C[C@@H](O)CN2C(=O)[C@@H](NC(=O)C2CCN(C3CCN(CCCNc4ccc(S(=O)(=O)NC(=O)c5ccc(N6CCN(CC7=C(c8ccc(Cl)cc8)CC(C)(C)CC7)CC6)cc5Oc5cnc6[nH]ccc6c5)cc4S(=O)(=O)C(F)(F)F)CC3)CC2)C(C)(C)C)cc1 [I-90] | > 3 µM | > 30 µM | – | –
16 | Cc1ncsc1-c1ccc([C@H](C)NC(=O)[C@@H]2C[C@@H](O)CN2C(=O)[C@@H](NC(=O)CCCCCC(=O)N2CCN(Cc3ccc(-c4ccc(Cl)cc4)c([C@H](O)C4CCN(c5ccc(C(=O)NS(=O)(=O)c6ccc(N[C@H](CCN(C)CCO)CSc7ccccc7)c(S(=O)(=O)C(F)(F)F)c6)cc5)CC4)c3)CC2)C(C)(C)C)cc1 [I-30] | > 3 µM | > 30 µM | – | –
17 | Cc1ncsc1-c1ccc([C@H](C)NC(=O)[C@@H]2C[C@@H](O)CN2C(=O)[C@@H](NC(=O)CCCCCC(=O)N2CCN(CC[C@H](CSc3ccccc3)Nc3ccc(S(=O)(=O)NC(=O)c4ccc(N5CC(N(C)C)C5)cc4)cc3S(=O)(=O)C(F)(F)F)CC2)C(C)(C)C)cc1 [I-49] | > 3 µM | > 30 µM | – | –
18 | Cc1ncsc1-c1ccc([C@H](C)NC(=O)[C@@H]2C[C@@H](N)CN2C(=O)[C@@H](NC(=O)C2CCN(CCCNc3ccc(S(=O)(=O)NC(=O)c4ccc(N5CCC([C@H](O)c6ccccc6-c6ccc(Cl)cc6)CC5)cc4Oc4cnc5[nH]ccc5c4)cc3S(=O)(=O)C(F)(F)F)CC2)C(C)(C)C)cc1 [I-92] | > 3 µM | > 30 µM | – | –
19 | Cc1ncsc1-c1ccc([C@H](C)NC(=O)[C@@H]2C[C@@H](O)CN2C(=O)[C@@H](NC(=O)CCCCCC(=O)N2CCC(NCCCNc3ccc(S(=O)(=O)NC(=O)c4ccc(N5CCN(CC6=C(c7ccc(Cl)cc7)CC(C)(C)CC6)CC5)cc4Oc4cnc5[nH]ccc5c4)cc3S(=O)(=O)C(F)(F)F)CC2)C(C)(C)C)cc1 [I-87] | > 3 µM | > 30 µM | – | –
20 | Cc1ncsc1-c1ccc([C@H](C)NC(=O)[C@@H]2C[C@@H](O)CN2C(=O)[C@@H](NC(=O)CCCCCNc2ccc(S(=O)(=O)NC(=O)c3ccc(N4CCN(CC5=C(c6ccc(Cl)cc6)CC(C)(C)CC5)CC4)cc3Oc3cnc4[nH]ccc4c3)cc2S(=O)(=O)C(F)(F)F)C(C)(C)C)cc1 [I-80] | > 3 µM | > 30 µM | – | –
21 | Cc1ncsc1-c1ccc([C@H](C)NC(=O)[C@@H]2C[C@@H](O)CN2C(=O)[C@@H](NC(=O)CCCCCC(=O)N2CCN(CC[C@H](CSc3ccccc3)Nc3ccc(S(=O)(=O)NC(=O)c4ccc(N5CCC6(CN(C)C6)C5)cc4)cc3S(=O)(=O)C(F)(F)F)CC2)C(C)(C)C)cc1 [I-50] | > 3 µM | > 30 µM | – | –
22 | Cc1ncsc1-c1ccc([C@H](C)NC(=O)[C@@H]2C[C@@H](O)CN2C(=O)[C@@H](NC(=O)CCCCCC(=O)N2CCN(C[C@]3(C)CCC(c4ccc(Cl)cc4)=C(CN4CCN(c5ccc(C(=O)NS(=O)(=O)c6ccc(NCCCN7CCOCC7)c(S(=O)(=O)C(F)(F)F)c6)c(Oc6cnc7[nH]ccc7c6)c5)CC4)C3)CC2)C(C)(C)C)cc1 [I-132] | – | – | 0.1 to 1 µM | > 30 µM
23 | Cc1ncsc1-c1ccc([C@H](C)NC(=O)[C@@H]2C[C@@H](O)CN2C(=O)[C@@H](NC(=O)CCCCCC(=O)N2CCN(CC[C@H](CSc3ccccc3)Nc3ccc(S(=O)(=O)NC(=O)c4ccc(N5CCN(C)CC5)cc4)cc3S(=O)(=O)C(F)(F)F)CC2)C(C)(C)C)cc1 [I-53] | > 3 µM | > 30 µM | – | –
24 | Cc1ncsc1-c1ccc([C@H](C)NC(=O)[C@@H]2C[C@@H](O)CN2C(=O)[C@@H](NC(=O)C2CCC3(CC2)CCN(CCCNc2ccc(S(=O)(=O)NC(=O)c4ccc(N5CCN(CC6=C(c7ccc(Cl)cc7)CC(C)(C)CC6)CC5)cc4Oc4cnc5[nH]ccc5c4)cc2S(=O)(=O)C(F)(F)F)CC3)C(C)(C)C)cc1 [I-116] | > 3 µM | > 30 µM | – | –
